From EPA's ToxValDB 9.5 (doi:10.2903/j.efsa.2016.4420)
In brackets after ≈: the same amount, converted by molar mass.

Legend:
[1] = chronic; duration: 128 days; other
[2] = tested on: Anas platyrhynchos
[3] = tested on: Apis mellifera; conditions: acute, mortality
[4] = tested on: Bibionidae; conditions: chronic/long-term
[5] = tested on: Canidae; conditions: chronic; duration: 2 years; Dog Other; histopathology: nonneoplastic
[6] = tested on: Danio rerio; conditions: chronic
[7] = tested on: Daphnia magna; conditions: chronic/long-term; duration: 21 days; reproduction
[8] = tested on: Folsomia candida; conditions: chronic/long-term; mortality
[9] = tested on: Oncorhynchus mykiss; conditions: acute; duration: 96 hours; mortality
[10] = tested on: Oryctolagus sp.; conditions: developmental; development
[11] = tested on: Pimephales promelas; conditions: chronic/long-term; reproduction
[12] = tested on: Rattus norvegicus
[13] = tested on: Tagia sp.; conditions: chronic/long-term; growth
[14] = tested on: Aphidius rhopalosiphi; test: LR50; higher = less toxic; conditions: not reported; mortality

CCC(CC)Nc1c([N+](=O)[O-])cc(C)c(C)c1[N+](=O)[O-] [Pendimethalin]
NOEC [1]: 0.00023 mg/L
LD50 ([2]; acute, oral, unspecified, mortality): 1420 mg/kg-day
NOEL ([2]; reproductive): 17.5 mg/kg-day
LD50 ([3]; dermal): > 100 µg/piece
LD50 ([3]; oral, unspecified): > 101 µg/piece
NOEC ([4]; duration: 28 days): 227 mg/kg
NOEC ([4]; duration: 30 days): 0.082 mg/L
NOAEL [5]: 12.5 mg/kg-day
NOEC [6]: 0.032 mg/L
NOEC [7]: 0.0145 mg/L
NOEC [8]: 193 mg/kg
LC50 [9]: 0.196 µg/mL (≈ 0.697 µM)
NOAEL [10]: 30 mg/kg-day
NOEC [11]: 0.0063 mg/L
LD50 ([12]; acute, mortality): 3930 mg/kg-day
NOAEL ([12]; reproduction developmental, body weight): 30 mg/kg-day
NOEC [13]: 33.5 mg/kg
LR50 [14]: 1200 g/ha
